US11572369B2, “Bicyclic pyridine compositions and methods of using the same for cancer therapy” (UNIVERSITY OF SOUTH CAROLINA, priority 2019, dated 2023)

Columns and labels:
Assay in all cases: KINOMEscan
Type in all cases: binding
Settings in all cases: 2000 nM
LATS1 = biological target: T1, LATS1 (Homo sapiens, UniProt O95835)
T1 construct: purchased KINOMEscan (DiscoveRx) panel service

[1] = biological target: ABL1(F317L)-nonphosphorylated (Homo sapiens, UniProt P00519, F317L)
PIK3CA(M1043I) = biological target: T2, PIK3CA(M1043I) (Homo sapiens, UniProt P42336, M1043I)
T2 construct: DNA label; purchased DiscoveRx (KINOMEscan scanMAX panel)

EPHB2 = biological target: T3, EPHB2 (Homo sapiens, UniProt P29323)
T3 construct: purchased DiscoveRx (KINOMEscan scanMAX panel)

FLT3(ITD, F691L) = tested on: FLT3(ITD, F691L)
Source text: (§1) Nat. Biotechnol. 23, 329-336 (2005).
(§2) Percent Control (% Ctrl).

PRP4 = biological target: T4, PRP4 (Homo sapiens, UniProt Q13523)
T4 construct: purchased DiscoveRx (KINOMEscan scanMAX panel)
Source text: as §1, §2

FLT3(ITD, D835V) = tested on: FLT3(ITD, D835V)
Source text: as §1, §2

CDC2L5 = biological target: T5, CDC2L5 (Homo sapiens, UniProt Q14004)
T5 construct: purchased DiscoverX (KINOMEscan service)
Source text: as §1, §2

PFCDPK1(P.falciparum) = biological target: T6, PFCDPK1(P.falciparum) (Plasmodium falciparum, UniProt P62344)
T6 construct: DNA label (for qPCR read-out); purchased DiscoveRx (KINOMEscan scanMAX service)
Source text: as §1, §2

PFPK5(P.falciparum) = biological target: T7, PFPK5(P.falciparum) (Plasmodium falciparum, UniProt P61075)
T7 construct: DNA label (for qPCR read-out); purchased DiscoveRx (KINOMEscan scanMAX service)
Source text: as §1, §2

FLT3 (ITD) = tested on: FLT3 (ITD)
Source text: as §1, §2

AKT2 = biological target: T8, AKT2 (Homo sapiens, UniProt P31751)
T8 construct: purchased DiscoveRx (KINOMEscan scanMAX panel, service)

PRKCQ = biological target: T9, PRKCQ (Homo sapiens, UniProt Q04759)
T9 construct: purchased DiscoveRx (KINOMEscan scanMAX panel)

VPS34 = biological target: T10, VPS34 (Homo sapiens, UniProt Q8NEB9)
T10 construct: DNA label (for qPCR read-out); purchased DiscoveRx (KINOMEscan scanMAX panel)

MARK2 = MARK2 (Homo sapiens, UniProt Q7KZI7)
DDR2 = biological target: T11, DDR2 (Homo sapiens, UniProt Q16832)
T11 construct: DNA label (qPCR read-out); purchased KINOMEscan (DiscoveRx) panel

NEK11 = biological target: T12, NEK11 (Homo sapiens, UniProt Q8NG66)
T12 construct: DNA label (qPCR read-out); purchased KINOMEscan (ScanMAX panel service)

[2] = biological target: T13, EGFR(L747-S752del, P753S) (Homo sapiens, UniProt P00533, DEL747-752/P753S)
T13 construct: purchased DiscoveRx (KINOMEscan scanMAX panel)

CTK = biological target: T14, CTK (Homo sapiens, UniProt P42679)
T14 construct: DNA label; purchased DiscoveRx (KINOMEscan scanMAX panel)

YES = biological target: T15, YES (Homo sapiens, UniProt P07947)
T15 construct: purchased KINOMEscan (DiscoveRx) panel service

EPHA6 = biological target: T16, EPHA6 (Homo sapiens, UniProt Q9UF33)
T16 construct: purchased DiscoveRx (KINOMEscan scanMAX panel)

MET(Y1235D) = biological target: T17, MET(Y1235D) (Homo sapiens, UniProt P08581, Y1235D)
T17 construct: purchased DiscoveRx (KINOMEscan scanMAX panel, service)

MYLK4 = biological target: T18, MYLK4 (Homo sapiens, UniProt Q86YV6)
T18 construct: DNA label (for qPCR read-out); purchased KINOMEscan scanMAX panel (DiscoveRx)

[3] = biological target: T19, ABL1(E255K)-phosphorylated (Homo sapiens, UniProt P00519, E255K)
T19 construct: DNA label (qPCR read-out); purchased DiscoverX (KINOMEscan service)

FES = biological target: T20, FES (Homo sapiens, UniProt P07332)
T20 construct: purchased DiscoveRx (KINOMEscan scanMAX panel)

SRPK1 = biological target: T21, SRPK1 (Homo sapiens, UniProt Q96SB4)
T21 construct: purchased KINOMEscan (DiscoveRx)

EPHA7 = biological target: T22, EPHA7 (Homo sapiens, UniProt Q15375)
T22 construct: purchased DiscoveRx (KINOMEscan scanMAX panel)

STK39 = biological target: T23, STK39 (Homo sapiens, UniProt Q9UEW8)
T23 construct: DNA label (for qPCR read-out); purchased DiscoveRx (KINOMEscan scanMAX panel, contract assay)

SRPK3 = biological target: T24, SRPK3 (Homo sapiens, UniProt Q9UPE1)
T24 construct: purchased KINOMEscan (DiscoveRx)

IRAK4 = biological target: T25, IRAK4 (Homo sapiens, UniProt Q9NWZ3)
T25 construct: DNA label (qPCR read-out); purchased KINOMEscan (DiscoveRx) ScanMAX panel

PKAC-beta = biological target: T26, PKAC-beta (Homo sapiens, UniProt P22694)
T26 construct: DNA label (qPCR read-out); purchased KINOMEscan (DiscoveRx) panel

RET = biological target: T27, RET (Homo sapiens, UniProt P07949)
T27 construct: purchased DiscoveRx (KINOMEscan scanMAX panel)

HIPK3 = biological target: T28, HIPK3 (Homo sapiens, UniProt Q9H422)
T28 construct: DNA label (for qPCR read-out); purchased DiscoveRx (KINOMEscan scanMAX panel, contract assay)

HIPK2 = biological target: T29, HIPK2 (Homo sapiens, UniProt Q9H2X6)
T29 construct: DNA label (for qPCR read-out); purchased DiscoveRx (KINOMEscan scanMAX panel, contract assay)

MKNK1 = biological target: T30, MKNK1 (Homo sapiens, UniProt Q9BUB5)
T30 construct: DNA label (qPCR read-out); purchased KINOMEscan scanMAX panel (DiscoveRx)
T30 sequence (Q9BUB5 whole entry): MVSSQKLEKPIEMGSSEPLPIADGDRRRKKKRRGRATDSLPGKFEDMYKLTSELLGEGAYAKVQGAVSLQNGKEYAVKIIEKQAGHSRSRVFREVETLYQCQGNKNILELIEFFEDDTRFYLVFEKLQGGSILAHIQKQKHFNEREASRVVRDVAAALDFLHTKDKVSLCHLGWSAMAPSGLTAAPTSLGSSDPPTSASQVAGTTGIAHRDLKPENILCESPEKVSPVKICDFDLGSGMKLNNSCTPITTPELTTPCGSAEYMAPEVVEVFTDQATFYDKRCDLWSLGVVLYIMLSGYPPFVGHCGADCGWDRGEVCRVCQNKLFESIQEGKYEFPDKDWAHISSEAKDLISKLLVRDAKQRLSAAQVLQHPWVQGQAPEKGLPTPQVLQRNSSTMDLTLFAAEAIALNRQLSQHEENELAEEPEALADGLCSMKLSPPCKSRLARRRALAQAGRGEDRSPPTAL

T25 sequence (Q9NWZ3 whole entry): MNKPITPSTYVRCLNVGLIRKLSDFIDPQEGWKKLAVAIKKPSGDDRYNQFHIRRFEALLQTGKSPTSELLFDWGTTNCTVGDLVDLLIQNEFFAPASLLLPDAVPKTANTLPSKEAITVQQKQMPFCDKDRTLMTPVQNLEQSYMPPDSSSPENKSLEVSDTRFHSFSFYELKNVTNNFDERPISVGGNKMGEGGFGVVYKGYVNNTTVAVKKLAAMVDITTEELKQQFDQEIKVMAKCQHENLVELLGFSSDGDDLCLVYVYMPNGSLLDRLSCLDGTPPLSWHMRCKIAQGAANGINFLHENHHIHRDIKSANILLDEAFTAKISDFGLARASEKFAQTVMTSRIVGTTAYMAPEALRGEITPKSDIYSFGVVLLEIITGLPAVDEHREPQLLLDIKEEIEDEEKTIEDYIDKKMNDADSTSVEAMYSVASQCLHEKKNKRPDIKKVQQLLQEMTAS
T6 sequence (P62344 whole entry): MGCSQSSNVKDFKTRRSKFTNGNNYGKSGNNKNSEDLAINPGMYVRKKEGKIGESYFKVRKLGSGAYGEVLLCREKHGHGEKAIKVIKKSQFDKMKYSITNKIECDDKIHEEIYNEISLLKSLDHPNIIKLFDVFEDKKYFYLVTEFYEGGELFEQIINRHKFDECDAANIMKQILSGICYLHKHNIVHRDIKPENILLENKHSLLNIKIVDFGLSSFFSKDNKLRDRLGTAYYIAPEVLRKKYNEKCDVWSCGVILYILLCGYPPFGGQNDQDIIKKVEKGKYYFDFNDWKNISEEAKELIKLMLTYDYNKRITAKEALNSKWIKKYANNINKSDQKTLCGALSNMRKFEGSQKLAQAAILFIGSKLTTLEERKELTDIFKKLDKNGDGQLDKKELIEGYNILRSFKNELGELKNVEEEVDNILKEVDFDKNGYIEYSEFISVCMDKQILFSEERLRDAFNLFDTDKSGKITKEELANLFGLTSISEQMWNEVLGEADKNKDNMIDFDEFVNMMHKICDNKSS
T7 sequence (P61075 whole entry): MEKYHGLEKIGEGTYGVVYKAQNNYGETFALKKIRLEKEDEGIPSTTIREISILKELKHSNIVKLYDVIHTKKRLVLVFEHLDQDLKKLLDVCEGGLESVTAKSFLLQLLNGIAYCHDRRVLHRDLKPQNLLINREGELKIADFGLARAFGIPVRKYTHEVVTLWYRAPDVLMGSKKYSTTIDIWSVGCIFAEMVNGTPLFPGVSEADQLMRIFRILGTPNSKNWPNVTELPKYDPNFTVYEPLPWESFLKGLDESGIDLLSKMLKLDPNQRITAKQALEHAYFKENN
T16 sequence (Q9UF33 23-1036): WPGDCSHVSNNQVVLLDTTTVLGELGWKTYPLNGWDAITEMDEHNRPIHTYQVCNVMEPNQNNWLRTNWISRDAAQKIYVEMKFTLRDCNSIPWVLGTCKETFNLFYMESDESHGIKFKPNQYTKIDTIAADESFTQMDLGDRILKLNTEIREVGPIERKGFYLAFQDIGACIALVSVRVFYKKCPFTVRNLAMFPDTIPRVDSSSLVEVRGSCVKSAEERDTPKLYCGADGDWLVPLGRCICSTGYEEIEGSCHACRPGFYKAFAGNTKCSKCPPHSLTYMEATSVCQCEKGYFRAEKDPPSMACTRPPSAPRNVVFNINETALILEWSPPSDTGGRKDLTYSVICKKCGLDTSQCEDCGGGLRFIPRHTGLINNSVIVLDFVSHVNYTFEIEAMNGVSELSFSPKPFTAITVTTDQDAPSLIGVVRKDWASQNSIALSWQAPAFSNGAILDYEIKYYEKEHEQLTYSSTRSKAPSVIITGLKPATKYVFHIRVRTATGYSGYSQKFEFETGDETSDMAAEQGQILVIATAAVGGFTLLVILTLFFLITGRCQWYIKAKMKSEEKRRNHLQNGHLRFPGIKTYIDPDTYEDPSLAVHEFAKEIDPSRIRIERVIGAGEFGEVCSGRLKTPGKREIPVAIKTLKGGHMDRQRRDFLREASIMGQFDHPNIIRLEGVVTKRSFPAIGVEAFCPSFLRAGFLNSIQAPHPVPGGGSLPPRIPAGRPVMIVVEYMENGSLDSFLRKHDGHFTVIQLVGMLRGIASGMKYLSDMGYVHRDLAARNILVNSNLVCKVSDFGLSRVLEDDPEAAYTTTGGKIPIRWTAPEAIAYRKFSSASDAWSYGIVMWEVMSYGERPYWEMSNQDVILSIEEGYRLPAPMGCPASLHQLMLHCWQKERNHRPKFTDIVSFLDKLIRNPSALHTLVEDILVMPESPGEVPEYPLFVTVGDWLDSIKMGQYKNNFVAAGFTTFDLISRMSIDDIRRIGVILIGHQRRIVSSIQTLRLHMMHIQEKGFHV
T27 sequence (P07949 29-1114): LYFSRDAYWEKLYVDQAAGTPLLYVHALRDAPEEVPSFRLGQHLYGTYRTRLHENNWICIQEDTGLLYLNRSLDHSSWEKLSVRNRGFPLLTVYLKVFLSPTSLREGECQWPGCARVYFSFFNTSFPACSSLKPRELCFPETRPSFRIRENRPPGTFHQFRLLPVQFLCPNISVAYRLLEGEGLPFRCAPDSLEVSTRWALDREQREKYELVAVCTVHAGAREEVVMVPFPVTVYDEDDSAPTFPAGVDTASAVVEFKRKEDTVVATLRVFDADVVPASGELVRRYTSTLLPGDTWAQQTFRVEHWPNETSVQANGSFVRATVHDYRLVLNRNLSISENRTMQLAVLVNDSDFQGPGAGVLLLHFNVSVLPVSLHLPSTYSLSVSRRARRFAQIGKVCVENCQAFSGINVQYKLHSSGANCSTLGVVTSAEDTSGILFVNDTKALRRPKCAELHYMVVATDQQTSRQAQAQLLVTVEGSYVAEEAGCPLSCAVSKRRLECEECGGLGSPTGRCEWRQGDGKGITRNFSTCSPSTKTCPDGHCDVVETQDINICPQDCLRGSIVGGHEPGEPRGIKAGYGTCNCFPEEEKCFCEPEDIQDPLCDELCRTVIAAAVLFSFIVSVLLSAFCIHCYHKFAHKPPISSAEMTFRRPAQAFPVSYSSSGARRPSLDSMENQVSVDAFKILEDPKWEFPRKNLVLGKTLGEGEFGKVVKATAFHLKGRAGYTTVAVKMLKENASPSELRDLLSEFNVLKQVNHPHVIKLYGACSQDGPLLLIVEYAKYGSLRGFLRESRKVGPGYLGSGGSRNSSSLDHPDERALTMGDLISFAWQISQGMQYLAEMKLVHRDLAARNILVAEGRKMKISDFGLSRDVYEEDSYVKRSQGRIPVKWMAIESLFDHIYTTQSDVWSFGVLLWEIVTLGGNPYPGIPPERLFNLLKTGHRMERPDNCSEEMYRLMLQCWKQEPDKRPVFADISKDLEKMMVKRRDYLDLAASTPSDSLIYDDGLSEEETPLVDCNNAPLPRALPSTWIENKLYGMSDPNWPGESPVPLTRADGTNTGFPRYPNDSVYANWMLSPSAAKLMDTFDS
T20 sequence (P07332 whole entry): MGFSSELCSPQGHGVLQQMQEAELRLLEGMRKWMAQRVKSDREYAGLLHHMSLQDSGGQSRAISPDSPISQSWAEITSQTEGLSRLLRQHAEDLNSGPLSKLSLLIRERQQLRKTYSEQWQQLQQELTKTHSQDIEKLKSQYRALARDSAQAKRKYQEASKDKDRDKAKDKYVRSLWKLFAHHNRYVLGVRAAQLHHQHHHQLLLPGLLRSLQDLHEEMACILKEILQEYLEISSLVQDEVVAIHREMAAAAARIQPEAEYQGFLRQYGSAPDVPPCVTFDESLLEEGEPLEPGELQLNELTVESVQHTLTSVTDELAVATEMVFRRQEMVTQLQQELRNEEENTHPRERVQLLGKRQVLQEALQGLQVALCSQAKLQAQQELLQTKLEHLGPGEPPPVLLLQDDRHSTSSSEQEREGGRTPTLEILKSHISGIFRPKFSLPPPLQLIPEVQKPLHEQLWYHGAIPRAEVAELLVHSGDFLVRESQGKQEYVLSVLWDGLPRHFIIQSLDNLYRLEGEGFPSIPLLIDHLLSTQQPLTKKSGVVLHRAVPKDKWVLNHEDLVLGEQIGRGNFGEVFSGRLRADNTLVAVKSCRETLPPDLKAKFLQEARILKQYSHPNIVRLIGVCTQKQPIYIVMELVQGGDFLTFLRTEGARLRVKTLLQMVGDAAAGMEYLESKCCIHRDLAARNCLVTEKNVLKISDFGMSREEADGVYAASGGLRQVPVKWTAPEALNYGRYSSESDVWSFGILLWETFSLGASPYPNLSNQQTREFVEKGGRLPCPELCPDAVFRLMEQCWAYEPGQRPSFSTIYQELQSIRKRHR
T18 sequence (Q86YV6 whole entry): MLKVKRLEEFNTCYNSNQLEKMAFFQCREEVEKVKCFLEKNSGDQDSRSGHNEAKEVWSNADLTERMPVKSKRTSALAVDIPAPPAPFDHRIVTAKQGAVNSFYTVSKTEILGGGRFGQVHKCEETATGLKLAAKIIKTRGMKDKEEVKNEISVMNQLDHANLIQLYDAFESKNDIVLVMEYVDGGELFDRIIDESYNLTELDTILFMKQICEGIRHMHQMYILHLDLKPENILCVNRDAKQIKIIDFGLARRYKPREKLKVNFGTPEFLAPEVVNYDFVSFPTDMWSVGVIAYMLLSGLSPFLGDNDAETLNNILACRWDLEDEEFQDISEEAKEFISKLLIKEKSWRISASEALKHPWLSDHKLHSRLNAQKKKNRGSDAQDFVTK

Row | Structure (SMILES) | % Ctrl (LATS1) [% Ctrl] | % Ctrl [1] [% Ctrl] | % Ctrl (PIK3CA(M1043I)) [% Ctrl] | % Ctrl (EPHB2) [% Ctrl] | % Ctrl (FLT3(ITD, F691L)) [% Ctrl] | % Ctrl (PRP4) [% Ctrl] | % Ctrl (FLT3(ITD, D835V)) [% Ctrl] | % Ctrl (CDC2L5) [% Ctrl] | % Ctrl (PFCDPK1(P.falciparum)) [% Ctrl] | % Ctrl (PFPK5(P.falciparum)) [% Ctrl] | % Ctrl (FLT3 (ITD)) [% Ctrl] | % Ctrl (AKT2) [% Ctrl] | % Ctrl (PRKCQ) [% Ctrl] | % Ctrl (VPS34) [% Ctrl] | % Ctrl (MARK2) [% Ctrl] | % Ctrl (DDR2) [% Ctrl] | % Ctrl (NEK11) [% Ctrl] | % Ctrl [2] [% Ctrl] | % Ctrl (CTK) [% Ctrl] | % Ctrl (YES) [% Ctrl] | other results
1 | CN(C)C(=O)c1ccc(N2CCCN(c3ccnc4sc(C(N)=O)c(N)c34)CC2)cc1 [15u, 3-amino-4-(4-(4-(dimethylcarbamoyl)phenyl)-1,4-diazepan-1-yl)thieno[2,3-b]pyridine-2-carboxamide] | 89 | 99 | 96 | 99 | 95 | 100 | 41 | 71 | 94 | 68 | 82 | 86 | 90 | 85 | 100 | 80 | 90 | 99 | 92 | 99 | % Ctrl (EPHA6): 100 % Ctrl; % Ctrl (MET(Y1235D)): 100 % Ctrl; % Ctrl (MYLK4): 100 % Ctrl; % Ctrl [3]: 100 % Ctrl; % Ctrl (FES): 100 % Ctrl; % Ctrl (SRPK1): 100 % Ctrl; % Ctrl (EPHA7): 92 % Ctrl; % Ctrl (STK39): 93 % Ctrl; % Ctrl (SRPK3): 65 % Ctrl; % Ctrl (IRAK4): 89 % Ctrl; % Ctrl (PKAC-beta): 83 % Ctrl; % Ctrl (RET): 93 % Ctrl; % Ctrl (HIPK3): 77 % Ctrl; % Ctrl (HIPK2): 100 % Ctrl; % Ctrl (MKNK1): 94 % Ctrl
2 | [2H]C([2H])([2H])N(C(=O)c1ccc(N2CCCN(c3ccnc4sc(C(N)=O)c(N)c34)CC2)cc1)C([2H])([2H])[2H] [15u_D6, 3-amino-4-(4-(4-(bis(methyl-d3)carbamoyl)phenyl)-1,4-diazepan-1-yl)thieno[2,3-b]pyridine-2-carboxamide] | 97 | 100 | 95 | 95 | 75 | 88 | 34 | 80 | 61 | 67 | 72 | 99 | 87 | 65 | 96 | 52 | 86 | 100 | 100 | 100 | % Ctrl (EPHA6): 100 % Ctrl; % Ctrl (MET(Y1235D)): 100 % Ctrl; % Ctrl (MYLK4): 94 % Ctrl; % Ctrl [3]: 82 % Ctrl; % Ctrl (FES): 100 % Ctrl; % Ctrl (SRPK1): 97 % Ctrl; % Ctrl (EPHA7): 81 % Ctrl; % Ctrl (STK39): 94 % Ctrl; % Ctrl (SRPK3): 96 % Ctrl; % Ctrl (IRAK4): 78 % Ctrl; % Ctrl (PKAC-beta): 100 % Ctrl; % Ctrl (RET): 86 % Ctrl; % Ctrl (HIPK3): 81 % Ctrl; % Ctrl (HIPK2): 81 % Ctrl; % Ctrl (MKNK1): 79 % Ctrl
